The source of these data is publication PMC10981309, “Dual-targeting tigecycline nanoparticles for treating intracranial infections caused by multidrug-resistant Acinetobacter baumannii” (Journal of Nanobiotechnology, 2024).

Structures are written as SMILES. In brackets after ≈: the same amount, converted by molar mass.

A short description of series [1]: In vitro drug release, dialysis method in PBS pH 7.4. The format is physicochemical. Conditions: PBS pH 7.4, 37 °C. The protocol: An in vitro drug release study was conducted employing the dialysis method, with phosphate-buffered saline (PBS, pH = 7.4) as the release medium. For this study, 2 mL aliquots of free Tigecycline (TGC), CSs, or Aβ11/T80@CSs (each containing 1 mg of TGC) were sealed in dialysis bags with a molecular weight cutoff of 3.5 kDa. These bags were then immersed in 30 mL of PBS and gently agitated at 37 °C. At predetermined time intervals, 1.0 mL of PBS was sampled from outside each dialysis bag for HPLC analysis, and an equivalent volume of fresh PBS was replenished to maintain a constant volume in the release medium.

Series [2] relates to bEnd.3 cells monolayer. As to the kind of experiment: Transmembrane transport assay, in vitro BBB model. The format is in vitro ADME. Conditions: bEnd.3 Transwell monolayer, apical to basolateral, TGC by HPLC. The protocol: An in vitro blood–brain barrier (BBB) model using bEnd.3 cells was developed to assess nanoparticle penetration. 2.0 × 10^5 cells were cultured in a Transwell chamber, achieving an intercellular compactness verified at 200 Ω·cm^2 transendothelial electrical resistance. […] Using Hank's Balanced Salt Solution, nanoparticles were added to the apical side and co-incubated. At intervals, 200 μL HBSS was sampled from the basolateral side for TGC concentration analysis via HPLC.

The test system of series [3] is multidrug-resistant A. baumannii. As to the kind of experiment: Minimum inhibitory concentration, microbroth dilution. The format is cell-based. Conditions: Acinetobacter baumannii; 1 × 10^5 CFU/mL, 24 h, OD 600 nm. The protocol: Mid-log phase bacteria, diluted to 1 × 10^5 CFU/mL, were mixed with these compounds (0.125–16 μg/mL) and incubated in 96-well plates for 24 h, with bacterial density measured at 600 nm. In a rat model, MDR A. baumannii was injected intracisternally (20 μL, 1 × 10^8 CFU/mL) into the CSF. […] CSF was collected after 24 h and cultured, with colony counts noted after 24 h at 37 °C.
In general terms: Dilution methods test growth across graded concentrations, often in twofold steps.

Series [4] is described as follows: Pharmacokinetics after intravenous injection. Conditions: female, Sprague-Dawley, rat, rats, i.v. 12.5 mg/kg TGC, plasma. The format is in vivo. The protocol: In the pharmacokinetic study, adult female Sprague–Dawley rats, weighing between 200 and 250 g, were used. Prior to the experiment, the animals were fasted overnight with free access to water. […] Each group received an intravenous administration of TGC at a dose of 12.5 mg/kg via the tail vein. Blood samples were collected at predetermined time points (0.25, 0.5, 1, 2, 4, 6, and 8 h), and then placed into 2 mL Eppendorf tubes. These samples were centrifuged at 10,000 rpm for 10 min at 4 °C to separate the plasma. A portion of the plasma was mixed with methanol in a 1:4 volume ratio and further centrifuged at 13,000 rpm for 10 min at 4 °C. The supernatant was collected for TGC concentration determination using HPLC. Pharmacokinetic parameters were subsequently calculated using the statistical analysis tool DAS2.

The nature of series [5]: Hemolysis assay. Further details: species or system rats. Conditions: rat; 2% erythrocyte suspension, 37 °C, three hours, relative to positive control (water); read-out: hemolysis rate. Here is the method:
The hemolytic activity of Aβ11/T80@CSs was assessed using erythrocytes from healthy rats. Blood samples were collected, and red blood cells were isolated through centrifugation, followed by suspension in normal saline to create a 2% erythrocyte solution. Two milliliters of this erythrocyte suspension were mixed with free TGC, CSs, or Aβ11/T80@CSs and incubated at 37 °C for three hours. Post-incubation, the samples were centrifuged, and the absorbance of the supernatant was measured using spectrophotometry at 570 nm. Purified water and normal saline served as positive and negative controls, respectively. The percentage of hemolysis was calculated using the following formula: Hemolysis%=Asample-Anegative/Apositive-Anegativ×100%

Series [6] concerns bEnd.3 cells. As to the kind of experiment: Cell cytotoxicity, MTT assay. The format is cell-based. Conditions: 24-h incubation, across a range of TGC concentrations. In general terms: Formazan colour is commonly taken as a measure of viable cells.
Series [7] is described as follows: Histological analysis (H&E) of heart, liver, spleen, lungs and kidneys. Type of series: in vivo, rats. Conditions: compared to normal control group. The text has this:
To further investigate the biosafety of the various formulations in vivo, blood samples were collected post-administration for biochemical analysis. After euthanizing the rats, their heart, liver, spleen, lung, and kidney tissues were harvested. These tissues underwent hematoxylin and eosin (H&E) staining and were subsequently imaged using a pathology slide scanner.

For orientation: MIC means the lowest concentration that inhibits growth of the organism. The low end stands for greater potency, the high end for weaker potency. The term Cmax denotes the peak of the concentration-time curve. The Tmax is the time at which the peak concentration occurs. One may read the clearance as the volume of plasma or blood freed of the substance per unit of time. For orientation: half-life means the time needed for the level to fall by half in the phase considered. In general, AUC(0-t) refers to the area under the concentration-time curve up to a stated or last time point. Lower therefore signals less exposure. In the case of `CN(C)c1cc(NC(=O)CNC(C)(C)C)c(O)c2c1C[C@H]1C[C@H]3[C@H](N(C)C)C(O)=C(C(N)=O)C(=O)[C@@]3(O)C(O)=C1C2=O` [Free-TGC, Tigecycline], the “time to complete release” value in series [1] was “within three hours”. The “permeability / transport capacity across in vitro BBB model” value in series [2] is given as “lowest permeability”. In series [3], this compound returned an MIC of 2 µg/mL (≈ 3.41 µM). In series [4], the Cmax is 3700 ± 620 ng/mL, the Tmax amounted to 15 min, the clearance was 20 mL/min/kg and the half-life was 46.2 ± 14.4 min. For the same compound, the AUC(0-t) in series [4] (0-8 h) is 8480 ± 2900 ng·h/mL. The MRT last in series [4] (read-out: MRT(0-t)) is 156 ± 9.6 min. The hemolysis at 3 h in series [5] was below 5%. In addition, the cell survival rate entry in series [6] is given as “exceeded 80%”. Moreover, in series [7], the “histopathology of heart, liver, spleen, lungs and kidneys” value is recorded as “no significant pathological alterations”.
